# Legend:
# Type in all cases: binding
# Details in all cases: Compound Concentration 10 µM
# [1] = target: T1, panel of 442 kinases (Homo sapiens, UniProt P06239)
# T1 construct: purchased KINOMEscan
# Text: (§1) We assessed the selectivity of members of this scaffold using the KINOMEscan methodology across a near comprehensive panel of 442 kinases [[18,27]].
# [2] = target: T2, panel of 442 kinases (Homo sapiens, UniProt Q14680)
# T2 construct: purchased KINOMEscan
# Text: as §1
# [3] = target: T3, panel of 442 kinases (Homo sapiens, UniProt Q8N752)
# T3 construct: purchased KINOMEscan
# T3 sequence (Q8N752 1-337): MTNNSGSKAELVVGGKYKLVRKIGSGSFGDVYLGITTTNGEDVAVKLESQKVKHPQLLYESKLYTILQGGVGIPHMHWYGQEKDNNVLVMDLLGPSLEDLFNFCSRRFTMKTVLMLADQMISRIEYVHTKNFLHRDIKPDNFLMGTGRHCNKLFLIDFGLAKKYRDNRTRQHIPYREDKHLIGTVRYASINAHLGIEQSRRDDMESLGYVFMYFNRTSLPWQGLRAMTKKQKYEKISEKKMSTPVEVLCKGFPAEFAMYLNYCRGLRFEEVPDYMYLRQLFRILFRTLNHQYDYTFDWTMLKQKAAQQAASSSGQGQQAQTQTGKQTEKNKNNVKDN
# Text: as §1
# T2 sequence (Q14680 whole entry): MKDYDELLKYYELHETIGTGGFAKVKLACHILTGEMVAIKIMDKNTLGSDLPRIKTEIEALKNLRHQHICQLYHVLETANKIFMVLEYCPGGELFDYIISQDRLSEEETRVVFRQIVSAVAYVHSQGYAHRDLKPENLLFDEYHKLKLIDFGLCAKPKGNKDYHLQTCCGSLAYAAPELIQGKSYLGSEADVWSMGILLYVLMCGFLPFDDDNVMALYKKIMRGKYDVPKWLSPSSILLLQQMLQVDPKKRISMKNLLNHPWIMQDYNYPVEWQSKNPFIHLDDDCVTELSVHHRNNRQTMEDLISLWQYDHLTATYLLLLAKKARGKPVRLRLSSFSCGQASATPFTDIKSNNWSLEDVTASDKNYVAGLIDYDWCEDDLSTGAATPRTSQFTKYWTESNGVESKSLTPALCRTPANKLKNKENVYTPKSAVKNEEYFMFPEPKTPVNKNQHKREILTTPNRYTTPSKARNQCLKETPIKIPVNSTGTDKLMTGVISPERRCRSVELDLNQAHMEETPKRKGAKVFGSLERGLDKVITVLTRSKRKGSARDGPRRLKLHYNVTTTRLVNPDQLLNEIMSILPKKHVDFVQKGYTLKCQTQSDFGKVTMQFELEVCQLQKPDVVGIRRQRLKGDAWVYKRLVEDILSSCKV
# T1 sequence (P06239 whole entry): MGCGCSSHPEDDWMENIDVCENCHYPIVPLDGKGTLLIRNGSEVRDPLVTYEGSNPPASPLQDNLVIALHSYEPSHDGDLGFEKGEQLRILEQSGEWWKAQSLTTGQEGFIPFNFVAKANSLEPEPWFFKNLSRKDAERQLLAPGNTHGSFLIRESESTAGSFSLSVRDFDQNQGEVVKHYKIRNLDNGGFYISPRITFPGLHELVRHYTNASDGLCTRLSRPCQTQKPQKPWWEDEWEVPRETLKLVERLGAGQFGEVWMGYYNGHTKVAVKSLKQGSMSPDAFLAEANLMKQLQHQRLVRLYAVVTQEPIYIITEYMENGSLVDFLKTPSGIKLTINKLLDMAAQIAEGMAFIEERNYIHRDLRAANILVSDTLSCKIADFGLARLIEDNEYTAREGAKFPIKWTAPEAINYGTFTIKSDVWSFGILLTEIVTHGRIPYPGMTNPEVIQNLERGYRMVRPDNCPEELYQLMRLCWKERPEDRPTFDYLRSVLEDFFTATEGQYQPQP
Structure (SMILES),KINOMEscan: LCK [1],KINOMEscan: MELK [2],KINOMEscan: CSNK1A1L [3]
COc1cc(C(=O)N2CCC(N3CCN(C)CC3)CC2)ccc1Nc1ncc2c(n1)N(C)c1ccccc1C(=O)N2C [15 (LRRK2-IN-1)],100,100,100
COc1cc(C(=O)N2CCC(N3CCN(C)CC3)CC2)ccc1Nc1ncc2c(n1)N1CCc3cccc(c31)C(=O)N2C [Compound 24],–,62,–
"COc1cc(C(=O)N2CCC(N3CCN(C)CC3)CC2)ccc1Nc1ncc2c(n1)N(C1CCCC1)c1ccccc1C(=O)N2C [Compound 25, 11-cyclopentyl-2-((2-methoxy-4-(4-(4-methylpiperazin-1-yl)piperidine-1-carbonyl)phenyl)amino)-5-methyl-5H-benzo[e]pyrimido[5,4-b][1,4]diazepin-6(11H)-one]",66,100,100
CCOc1cc(C(=O)N2CCC(N3CCN(C)CC3)CC2)ccc1Nc1ncc2c(n1)N(C1CCCC1)c1ccccc1C(=O)N2C [Compound 26],100,100,99
